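In this assay, cells in 96-well plates receive the compound at five concentrations for 48 hours. Endpoints are linearly interpolated between the surrounding concentrations. At the TGI there is no net growth.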
Key:
Assay in all cases: NCI tumour cell line growth inhibition, 48 h
SK-MEL-5 melanoma = tested on: SK-MEL-5 melanoma
SW-620 colon = tested on: SW-620 colon
HOP-18 NSCLC = tested on: HOP-18 NSCLC
LOX IMVI melanoma = tested on: LOX IMVI melanoma
KM12 colon = tested on: KM12 colon
COLO 205 colon = tested on: COLO 205 colon
OVCAR-8 ovarian = tested on: OVCAR-8 ovarian
UO-31 renal = tested on: UO-31 renal
NCI-H522 lung = tested on: NCI-H522 lung
NCI-H460 lung = tested on: NCI-H460 lung
SNB-19 CNS = tested on: SNB-19 CNS
IGROV1 ovarian = tested on: IGROV1 ovarian
SK-MEL-28 melanoma = tested on: SK-MEL-28 melanoma
UACC-62 melanoma = tested on: UACC-62 melanoma
U251 CNS = tested on: U251 CNS
M19-MEL melanoma = tested on: M19-MEL melanoma
MALME-3M melanoma = tested on: MALME-3M melanoma
SF-539 CNS = tested on: SF-539 CNS
A549 NSCLC = tested on: A549 NSCLC
OVCAR-3 ovarian = tested on: OVCAR-3 ovarian
DMS 114 small cell lung = tested on: DMS 114 small cell lung
EKVX NSCLC = tested on: EKVX NSCLC
HT29 colon = tested on: HT29 colon
LXFL 529 NSCLC = tested on: LXFL 529 NSCLC
HCT-15 colon = tested on: HCT-15 colon
TK-10 renal = tested on: TK-10 renal
KM20L2 colon = tested on: KM20L2 colon
CCRF-CEM leukemia = tested on: CCRF-CEM leukemia
NCI-H226 lung = tested on: NCI-H226 lung
RPMI-8226 leukemia = tested on: RPMI-8226 leukemia
SR leukemia = tested on: SR leukemia
HCT-116 colon = tested on: HCT-116 colon
HCC-2998 colon = tested on: HCC-2998 colon
SK-OV-3 ovarian = tested on: SK-OV-3 ovarian
RXF 393 renal = tested on: RXF 393 renal
DMS 273 small cell lung = tested on: DMS 273 small cell lung
OVCAR-5 ovarian = tested on: OVCAR-5 ovarian
HOP-92 NSCLC = tested on: HOP-92 NSCLC
HOP-62 NSCLC = tested on: HOP-62 NSCLC
HL-60(TB) leukemia = tested on: HL-60(TB) leukemia
ACHN renal = tested on: ACHN renal
K-562 leukemia = tested on: K-562 leukemia
M14 melanoma = tested on: M14 melanoma
SN12C renal = tested on: SN12C renal
CAKI-1 renal = tested on: CAKI-1 renal
NCI-H23 lung = tested on: NCI-H23 lung
SK-MEL-2 melanoma = tested on: SK-MEL-2 melanoma
SF-268 CNS = tested on: SF-268 CNS
MOLT-4 leukemia = tested on: MOLT-4 leukemia
OVCAR-4 ovarian = tested on: OVCAR-4 ovarian
DLD-1 colon = tested on: DLD-1 colon
T-47D breast = tested on: T-47D breast
PC-3 prostate = tested on: PC-3 prostate
MDA-MB-435 = tested on: MDA-MB-435
DU-145 prostate = tested on: DU-145 prostate
NCI/ADR-RES ovarian = tested on: NCI/ADR-RES ovarian
BT-549 breast = tested on: BT-549 breast
786-0 renal = tested on: 786-0 renal
HS 578T breast = tested on: HS 578T breast
MDA-MB-231 breast = tested on: MDA-MB-231 breast
UACC-257 melanoma = tested on: UACC-257 melanoma
A498 renal = tested on: A498 renal
MDA-N = tested on: MDA-N
MCF7 breast = tested on: MCF7 breast
SF-295 CNS = tested on: SF-295 CNS
SNB-75 CNS = tested on: SNB-75 CNS

COc1ccc(C[C@H](N)C(=O)N2C[C@H](CO)C[C@H](n3ccc(=O)[nH]c3=O)C2)cc1
TGI (SK-MEL-5 melanoma): > 100 µM | TGI (SW-620 colon): > 100 µM | TGI (HOP-18 NSCLC): > 100 µM | TGI (LOX IMVI melanoma): > 100 µM | TGI (KM12 colon): > 100 µM | TGI (COLO 205 colon): > 100 µM | TGI (OVCAR-8 ovarian): > 100 µM | TGI (UO-31 renal): > 100 µM | TGI (NCI-H522 lung): > 100 µM | TGI (NCI-H460 lung): > 100 µM | TGI (SNB-19 CNS): > 100 µM | TGI (IGROV1 ovarian): > 100 µM | TGI (SK-MEL-28 melanoma): > 100 µM | TGI (UACC-62 melanoma): > 100 µM | TGI (U251 CNS): > 100 µM | TGI (M19-MEL melanoma): > 100 µM | TGI (MALME-3M melanoma): > 100 µM | TGI (SF-539 CNS): > 100 µM | TGI (A549 NSCLC): > 100 µM | TGI (OVCAR-3 ovarian): > 100 µM | TGI (DMS 114 small cell lung): > 100 µM | TGI (EKVX NSCLC): > 100 µM | TGI (HT29 colon): > 100 µM | TGI (LXFL 529 NSCLC): > 100 µM | TGI (HCT-15 colon): > 100 µM | TGI (TK-10 renal): > 100 µM | TGI (KM20L2 colon): > 100 µM | TGI (CCRF-CEM leukemia): > 100 µM | TGI (NCI-H226 lung): > 100 µM | TGI (RPMI-8226 leukemia): > 100 µM | TGI (SR leukemia): > 100 µM | TGI (HCT-116 colon): > 100 µM | TGI (HCC-2998 colon): > 100 µM | TGI (SK-OV-3 ovarian): > 100 µM | TGI (RXF 393 renal): > 100 µM | TGI (DMS 273 small cell lung): > 100 µM | TGI (OVCAR-5 ovarian): > 100 µM | TGI (HOP-92 NSCLC): > 100 µM | TGI (HOP-62 NSCLC): > 100 µM | TGI (HL-60(TB) leukemia): > 100 µM | TGI (ACHN renal): > 100 µM | TGI (K-562 leukemia): > 100 µM | TGI (M14 melanoma): > 100 µM | TGI (SN12C renal): > 100 µM | TGI (CAKI-1 renal): > 100 µM | TGI (NCI-H23 lung): > 100 µM | TGI (SK-MEL-2 melanoma): > 100 µM | TGI (SF-268 CNS): > 100 µM | TGI (MOLT-4 leukemia): > 100 µM | TGI (OVCAR-4 ovarian): > 100 µM | TGI (DLD-1 colon): > 100 µM

N#CC(C#N)=Cc1c(O)ccc2ccccc12
TGI (SK-MEL-5 melanoma): 26.2 µM | TGI (SW-620 colon): 34.5 µM | TGI (LOX IMVI melanoma): 26.6 µM | TGI (KM12 colon): 33.3 µM | TGI (T-47D breast): 46.4 µM | TGI (COLO 205 colon): 44.5 µM | TGI (OVCAR-8 ovarian): 36.4 µM | TGI (UO-31 renal): 28.5 µM | TGI (NCI-H522 lung): 29.2 µM | TGI (NCI-H460 lung): 36.7 µM | TGI (SNB-19 CNS): 30.5 µM | TGI (IGROV1 ovarian): 39.4 µM | TGI (SK-MEL-28 melanoma): 28.9 µM | TGI (PC-3 prostate): 33.6 µM | TGI (UACC-62 melanoma): 31.1 µM | TGI (MDA-MB-435): 30 µM | TGI (U251 CNS): 32.5 µM | TGI (DU-145 prostate): 27.8 µM | TGI (NCI/ADR-RES ovarian): 64.7 µM | TGI (MALME-3M melanoma): 39.8 µM | TGI (SF-539 CNS): 29.1 µM | TGI (BT-549 breast): 32.1 µM | TGI (A549 NSCLC): 38 µM | TGI (OVCAR-3 ovarian): 27.4 µM | TGI (786-0 renal): 33 µM | TGI (HS 578T breast): 55.5 µM | TGI (EKVX NSCLC): 26.3 µM | TGI (HT29 colon): 41.1 µM | TGI (MDA-MB-231 breast): 30.4 µM | TGI (UACC-257 melanoma): 32.6 µM | TGI (HCT-15 colon): 37.5 µM | TGI (TK-10 renal): 32.2 µM | TGI (CCRF-CEM leukemia): 5.17 µM | TGI (NCI-H226 lung): 50 µM | TGI (A498 renal): 31.1 µM | TGI (RPMI-8226 leukemia): 38.6 µM | TGI (SR leukemia): 13.6 µM | TGI (HCT-116 colon): 30.9 µM | TGI (MDA-N): 30.5 µM | TGI (HCC-2998 colon): 33.1 µM | TGI (SK-OV-3 ovarian): 34.7 µM | TGI (RXF 393 renal): 31.2 µM | TGI (OVCAR-5 ovarian): 31.7 µM | TGI (HOP-92 NSCLC): 23.4 µM | TGI (HOP-62 NSCLC): 50.2 µM | TGI (HL-60(TB) leukemia): 15.7 µM | TGI (ACHN renal): 23.9 µM | TGI (K-562 leukemia): 24.6 µM | TGI (MCF7 breast): 34.3 µM | TGI (SF-295 CNS): 29.5 µM | TGI (M14 melanoma): 28.3 µM | TGI (SN12C renal): 27.3 µM | TGI (CAKI-1 renal): 29.1 µM | TGI (NCI-H23 lung): 26.9 µM | TGI (SK-MEL-2 melanoma): 37.8 µM | TGI (SF-268 CNS): 33.1 µM | TGI (SNB-75 CNS): 17.9 µM | TGI (OVCAR-4 ovarian): 43.6 µM

Source: PubChem BioAssay (NCI)
